Experimental data from patent US10160791B2, “Protamine in treatment of neuronal injuries” (UNIVERSITY OF HELSINKI, priority 2013, dated 2018).
“Also recorded” adds a separate entry of the source.

Columns and labels:
[1] = system: embryonic rat cortical neurons; test: Neurite outgrowth assay on aggrecan-coated substrate, cortical neurons; format: cell-based; settings: E17 rat cortical neurons, plates precoated with aggrecan 10 μg/ml, cultured 1.5-3.5 days
Method: (§1) Cortical or hippocampal neurons from E17 rat embryos were plated at 50,000 cells/cm2 on plastic cell culture plates. Plates were precoated with aggrecan or IgG (10 μg/ml). Protamine, or derived peptides, were precoated together with aggrecan or added to culture medium when plating neurons. Cells were cultured for 1.5-3.5 days and after that images of cell cultures were taken using phase contrast microscope with ×20 objective. Neurite length was quantified using ImagePro software. Mouse neurons were immunostained with anti-tubulin βIII antibodies and imaged using fluorescent microscope.

wild type RPTPσ = test: RPTPσ binding assay (ELISA, biotinylated aggrecan), wild type RPTPσ; design: species or system mouse; settings: FIG. 4
Excerpt: (§2) Protamine (salmon) and protamine sulphate (herring) were from Sigma, protamine sulphate (salmon) was from Leo Pharma. Bovine aggrecan was from Sigma. The DNA sequence (the template cDNA clone MGC:63375 IMAGE:6834684) of the CSPG-binding domain of mouse RPTPσ was used for Fc-tagged RPTPσ protein production. Peptides derived from the protamine sequence were custom synthesised by CASLO ApS (Denmark).
(§3) The Fc-tagged extracellular domain of RPTPσ was immobilized on protein G-coated plates. Binding of biotinylated aggrecan to RPTPσ was quantified via colorimetric assay using streptavidin-conjugated horse radish peroxidise. Experiments were done by using protein G coated 96 well plates (Pierce, prod. #15133). Wells were first washed briefly with PBS, 0.05% Tween-20 solution. RPTPσ wild type and mutant FC-fusion proteins were diluted into 2 μg/ml solution in buffer containing PBS, 1% BSA, 0.05% Tween-20. 150 μl of protein solution was added into the wells and plates were left for shaking at +RT for 1 hour. […] Detection of bound Streptavidin-Peroxidase Polymer was done by adding 200 μl of OPD (o-Phenylenediamine dihydrochloride, SIGMA P9187) substrate into the wells and was measured by reading the absorbance at 450 nm (A450).
(§4) Aggrecan binding to RPTPσ was assessed via ELISA using Fc-tagged RPTPσ and biotinylated aggrecan. Binding was quantified using streptavidin-bound horse radish peroxidase. […]

[2] = system: Mutant RPTPσ, with a defective CSPG-binding site; test: RPTPσ binding assay (ELISA, biotinylated aggrecan), mutant RPTPσ; design: species or system mouse; settings: negative control, biotinylated aggrecan 5 μg/ml, protamine 0-5 μg/ml
Excerpt: as §2, §3, §4

[3] = system: embryonic rat hippocampal neurons; test: Neurite outgrowth assay on aggrecan-coated substrate, hippocampal neurons; format: cell-based; settings: E17 rat hippocampal neurons, plates precoated with aggrecan 10 μg/ml
Method: as §1

[4] = system: mice with spinal cord hemisection; test: Vertical screen test after spinal cord hemisection; format: in vivo, mouse; settings: intracerebroventricular injection, compared to vehicle
Method: (§5) Animals were anaesthetized with a intraperitoneal mixture of Ketaminol (2 mg/20 g body weight, Intervet) and Rompun (0.25 mg/20 g body weight, Bayer). After laminectomy at C5 vertebral level, the dura was carefully removed. The right cervical spinal hemicord was transected with a 25G syringe needle from midline dorsal vessel to the lateral side. Bleeding was controlled with haemostatic gelatin sponge. Muscle and skin were sutured with 6-0 monocryl. 30 min before surgery and during following 3 days mice were treated with antibiotic Borgal (30 mg/kg, Intervet). Body weight and bladder expression were checked for 7 days, and animal received Rimadil (5 mg/kg, Pfizer) and Rapidexon (0.2 mg/kg, Evrovet) to control pain and inflammatory swelling until they stop to lose body weight.
Vertical screen (VS). The mouse was placed on a very brink of horizontal wire screen (25×22 cm, diameter of wires 2 mm spaced at 1 cm) faced to edge. Immediately after that the screen was turned vertically to place mouse to upside down position at the lower edge. The time that animal was needed to climb to the upper edge were measured during 1 min. This test was repeated every second week starting from 1st week after surgery.
(§6) Statistic. Data obtained from Vertical screen test were analyzed by one-way ANOVA followed by post-hoc Newman-Keuls test for detection of group differences. […]

[5] = system: mice with spinal cord hemisection; test: Cylinder test of limb use asymmetry after spinal cord hemisection; format: in vivo, mouse; settings: intracerebroventricular injection, compared to vehicle
Method: as §5
Cylinder Test of Limb Use Asymmetry. Mouse was placed to glass cylinder 10 cm in diameter and 14 cm high. Mirror was position at the angle behind of cylinder for better observation. […] The number of rearing in which mouse used right (impaired), left or both limbs for support against the wall were measured. Paw preference were calculated as ratio of total number of left limb use (left+both) to total number of right (impaired) limb use (right+both).
as §6

## MPRRRRSSSRPVRRRRRPRVSRRRRRRGGRRRR (Genus/Species name of salmon disclosed by SEQ ID NO 1 is not known) [Protamine, small arginine-rich nuclear protein, from Sigma]
[1]
  neuronal attachment and neurite growth on the aggrecan-coated substrate: overcomes the inhibitory action of aggrecan, promoting neuronal attachment and neurite growth; also recorded: overcame this inhibitory action of aggrecan, promoting neuronal attachment and neurite growth; also recorded: active as both the free protein and as sulphate salt
Wild type RPTPσ
  amount of aggrecan binding to RPTPσ (in words): increases the amount of aggrecan binding to RPTPσ
[2]
  aggrecan binding to mutant RPTPσ: not affected

## SRPVRRRRRPRVS [Peptide 3]
[3]
  neuronal attachment and neurite growth on the aggrecan-coated substrate: overcomes the inhibitory action of aggrecan, promoting neuronal attachment and neurite growth

## SRPVRRRRRPRVSRRRRRRGGRRRR [Peptide 2]
[1]
  neuronal attachment and neurite growth on the aggrecan-coated substrate: overcome the inhibitory action of aggrecan, promoting neuronal attachment and neurite growth; also recorded: displayed activity

## VSRRRRRRGGRRRR [Peptide 12]
[1]
  neuronal attachment and neurite growth on the aggrecan-coated substrate: overcome the inhibitory action of aggrecan, promoting neuronal attachment and neurite growth; also recorded: displayed activity
[4]
  time used in the vertical climbing test (vertical screen): improves functional recovery
[4]; listed as protamine peptide 12
  time used in the vertical climbing test (vertical screen): becomes shortened compared to injection of the vehicle only
[5]
  limb usage on the affected side (cylinder test): improves functional recovery
[5]; listed as protamine peptide 12
  limb usage on the affected side (cylinder test): enhances limb usage on the affected side compared to the vehicle
